Experimental data from patent US20170334919A1, “2-((4-AMINO-3-(3-FLUORO-5-HYDROXYPHENYL)-1H-PYRAZOLO[3,4-D]PYRIMIDIN-1 -YL)METHYL)-3-(2-(TRIFLUORO-MET HYL)BENZYL)QUINAZOLIN-4(3H)-ONE DERIVATIVES AND THEIR USE AS PHOSPHOINOSITIDE 3-KINASE INHIBITORS” (RESPIVERT LTD., priority 2013, published 2017).
Like-named read-outs stand apart in the source and are kept apart here.

Key:
PBMCs = test: Cytostim-induced cytokine production in PBMCs; type: cell-based; conditions: Homo sapiens, PBMC
Experimental: As a means of assessing PI3Kδ-dependent cell function, cytostim-induced IL-4, IL-5, IL-13 and IFNγ production in PBMCs were evaluated by Luminex multiplex assay. All healthy volunteers were recruited by Quintiles Limited (London, UK), and blood samples were delivered to Respivert Ltd. This study was approved by the local Ethics Committee, and all subjects gave written informed consent.
PBMC suspensions (200 μL; 2×10^6 cells/mL) were added to a 96-well plate. Cells were treated with either test compounds in neat DMSO or DMSO as vehicle (2 μL) and incubated at RT for 1 hr. Cytostim (Miltentyi Biotec, Surrey, UK) was introduced at a ratio of 1:50 and the cells were incubated for 20 hr (37° C.; 5% CO2). Plates were spun at 500×g for 5 min and the supernatant collected. A high sensitivity cytokine magnetic bead kit (#HSCYTMAG-60SK, Millipore, Watford, UK) was used to measure the four analytes (IL-4, IL-5, IL-13 and IFNγ) by Luminex as follows: The magnetic antibody beads were multiplexed and incubated in a 96-well plate with standard, media only or sample (50 μL) overnight with shaking at 4° C. After washing twice with Millipore wash buffer provided in the kit using a magnetic plate washer, the beads were incubated for 1 hr with detection antibody (50 μL) with shaking at RT. A streptavidin-phycoerythrin solution provided in the kit was added for 30 min with shaking at RT. After washing, the beads were re-suspended in sheath fluid (150 μL) and analysed immediately. The Luminex system was set up to count 50 beads and the amount of each analyte in the supernatant was calculated against a standard curve. The IC50 values were determined from concentration-inhibition curves using XL-Fit (IDBS, Guildford, UK)

[1] = system: LPS-induced airway neutrophilia in mice; test: LPS-induced airway neutrophil accumulation in mice; type: in vivo, BALB/c mice
Experimental: Non-fasted BALB/c mice (6-8 weeks old) were dosed with vehicle or with test compound by intra-tracheal administration (dose volume 20 μL) at time points T=−2 hr, −8 hr, or −12 hr with respect to the start of LPS treatment. The LPS was prepared in a solution of 0.5 mg/mL and aerosolised using a De Vibliss ultrasonic nebuliser 2000 (7 mL during 30 min exposure). At eight hr after LPS challenge, the trachea was cannulated and bronchoalveolar lavage fluid (BALF) extracted by infusing and then withdrawing PBS (1 mL) into the lungs via the tracheal catheter. This procedure was repeated to give a yield of approximately 2 mL lavage fluid. Total cell numbers in the BALF samples were measured using a haemocytometer. Cytospin smears of the BALF samples were prepared by centrifugation at 1200 rpm for 2 min at RT and stained using a DiffQuik stain system (Dade Behring) for differential cell counts. Cells were counted using oil immersion microscopy. Data are expressed as neutrophil number of cells per mL of BALF (mean±S.E.M).

d-U937 cells = test: MTT assay, cell viability; type: cell-based, human; conditions: 10 μg/mL
Experimental: PMA-differentiated U937 cells were pre-incubated with test compound (10 μg/mL) or vehicle for 4 hr in 5% FCS or 10% FCS for 24 hr. The supernatant was replaced with new media (200 μL) and MTT stock solution (10 μL, 5 mg/mL) was added to each well. After 1 hr incubation, the media were removed, 200 μL of DMSO was added to each well and the plates were shaken lightly for 1 hr prior to reading the absorbance at 550 nm. The percentage loss of cell viability was calculated for each well relative to vehicle (0.5% DMSO)-treatment.

IFNγ-primed U937 cells = test: Superoxide anion production assay (zymosan-induced ROS); type: cell-based; conditions: Homo sapiens, U-937; read-out: REC50, Zymosan-induced ROS production in IFNγ-primed U937 cells
Experimental: As a means of assessing PI3Kδ dependent cell function, superoxide anion production in IFNγ-primed U937 cells was evaluated by a chemiluminescence assay. The U937 cells (purchased from ATCC, Manassas, Va.) were maintained in RPMI 1640 (Invitrogen Ltd., Paisley, UK) with 10% FCS at 37° C. The cells were suspended at a density of 10^7cells/mL in 40 mL 10% FCS RPMI 1640, and treated with 20 μL of 100 μg/mL IFNγ solution (final concentration: 50 ng/mL), and incubated at 37° C., 5% CO2 for 4 days.
IFNγ-primed U937 cells were seeded at 0.2×10^6 cells/well in a 96-well plate, and pre-incubated with test compounds for 2 hr in starvation media (0.5% FCS RPMI1640-phenol red free). Zymosan A (10 mg) from Saccharomyses cerevisiae (ex Sigma-Aldlich) was resuspended in 1 mL of 150 mM NaCl and boiled at 100° C. for 15 min. After boiling, Zymosan particles were washed with 1 mL of PBS twice, and incubated with 0.5 mL of BioParticles™ opsonized reagents (Life technologies) for 60 min at 37° C. […] Chemiluminescence indicating released superoxide anion was measured every 15 min up to 60 min by luminometric measurement (Varioskan® Flash, Thermo-Fisher Scientific).
The data at 60 min after incubation was used for analysis. […] The relative EC50 values were calculated from the concentration-response curves generated by the serial dilutions of the test compounds using XL-Fit (idbs, Guildford, UK).

[2] = 0.2 mg/mL intra-tracheal, pre-dose time 8 hr

`COCCOCCOCC#Cc1cccc2nc(Cn3nc(-c4cc(O)cc(F)c4)c4c(N)ncnc43)n(Cc3ccccc3C(F)(F)F)c(=O)c12` [Compound (I), 2-((4-Amino-3-(3-fluoro-5-hydroxyphenyl)-1H-pyrazolo[3,4-d]pyrimidin-1-yl)methyl)-5-(3-(2-(2-methoxyethoxy)ethoxy)prop-1-yn-1-yl)-3-(2-(trifluoromethyl)benzyl)quinazolin-4(3H)-one] was tested, and the IC50 (PBMCs; read-out: IC50, Cytostim-induced IFNγ in PBMCs) was 13.8 nM, the IC50 (PBMCs; read-out: IC50, Cytostim-induced IL-4 in PBMCs) was < 1.4 nM and the IC50 (PBMCs; read-out: IC50, Cytostim-induced IL-5 in PBMCs) was < 1.4 nM. For the same compound, the IC50 (PBMCs; read-out: IC50, Cytostim-induced IL-13 in PBMCs) was < 1.4 nM, the “Neutrophil numbers in BALF, % inhibition” value ([1]; 0.05 mg/mL intra-tracheal, pre-dose time 2 hr) was 2.5 (19) % and the “Neutrophil numbers in BALF, % inhibition” value ([1]; 0.2 mg/mL intra-tracheal, pre-dose time 2 hr) was 1.4 (53) %. For the same compound, the “Neutrophil numbers in BALF (mean ± SEM)” value [1, 2] was 9.4 ± 2.0 ×10^5/mL, the “Neutrophil numbers in BALF, % inhibition” value [1, 2] was 45% and the “Neutrophil numbers in BALF, % inhibition” value ([1]; 0.2 mg/mL intra-tracheal, pre-dose time 12 h) was 23%. For the same compound, the Neutrophil numbers in BALF, % inhibition ([1]; 1.0 mg/mL intra-tracheal, pre-dose time 2 hr) was 68%, the “Cell Viability MTT Assay in d-U937 cells at 4 hr” value (d-U937 cells; 4 hr) was “−ve (−ve indicates a value of <30% inhibition at 10 μg/mL)” and the “Cell Viability MTT Assay in d-U937 cells at 24 hr” value (d-U937 cells; 24 hr) was “−ve (−ve indicates a value of <30% inhibition at 10 μg/mL)”. For the same compound, the EC50 (IFNγ-primed U937 cells) was 11.8 nM.
